Experimental findings from patent publication US9115117B2, “Substituted piperidine compounds and their use as orexin receptor modulators” (JANSSEN PHARMACEUTICA NV, priority 2013, dated 2015) are described below.

Experiment [1] addresses rat orexin 1 receptor (Rattus norvegicus, UniProt P56718). Nature of the experiment: Rat orexin 1 receptor radioligand binding. As to conditions: HEK293 cells stably expressing rat orexin 1 receptor; apparent Ki; read-out: rOX1 Ki. On the procedure:
After centrifugation (2K×G, 5 min at 4° C.), the supernatant was aspirated and the pellets frozen and stored at −80° C. […] Each cell pellet from a 15 cm plate was resuspended in 10 mL, stored on ice, and homogenized for 45 sec prior to addition to the reactions. Competition binding experiments in 96 well polypropylene plates were performed using [^3H]-(1-(5-(2-fluoro-phenyl)-2-methyl-thiazol-4-yl)-1-((S)-2-(5-phenyl-(1,3,4)oxadiazol-2-ylmethyl)-pyrrolidin-1-yl)-methanone) (Moraveck Corporation, specific activity=35.3 Ci/mmol), diluted to a 10 nM concentration in PBS (4 nM final). […] The final concentration of DMSO in the reactions is equal to or less than 0.1%. Total and nonspecific binding was determined in the absence and presence of 10 μM almorexant. The total volume of each reaction is 200 μL (20 μL of diluted compounds, 80 μL of [3H]-(1-(5-(2-fluoro-phenyl)-2-methyl-thiazol-4-yl)-1-((S)-2-(5-phenyl-(1,3,4)oxadiazol-2-ylmethyl)-pyrrolidin-1-yl)-methanone) diluted in PBS and 100 μL of the cell suspension). […] The plates were washed 3 times by aspirating 30 ml PBS through the plates. Plates were dried in 55° C. oven for 60 min, scintillation fluid was added, and the radioactivity was counted on a Topcount (Packard).

The target in experiment [2] is human orexin 1 receptor (Homo sapiens, UniProt O43613). Briefly: Human orexin 1 receptor radioligand binding. The following applies: CHO cells stably expressing human orexin 1 receptor; apparent Ki; read-out: hOX1 Ki. On the procedure:
The in vitro affinity of the compounds of the invention for the rat/human orexin 1 and human orexin 2 receptors was determined by competitive radioligand binding using [^3H](1-(5-(2-fluoro-phenyl)-2-methyl-thiazol-4-yl)-1-((S)-2-(5-phenyl-(1,3,4)oxadiazol-2-ylmethyl)-pyrrolidin-1-yl)-methanone)(Langmead et al., 2004) and [^3H]EMPA (n-ethyl-2[96-methoxy-pyridin-3-yl)-(toluene-2-sulfonyl)-amino]-N-pyridin-3-ylmethyl acetamide), respectively (Langmead et al., 2004, British Journal of Pharmacology 141:340-346; Malherbe et al., 2004, British Journal of Pharmacology 156:1326-41).
Human Embryonic Kidney 293 cells (HEK293) stably expressing rat orexin 1 receptor (Genebank accession number NM_001525) or Chinese ovary cells (CHO) stably expressing human orexin 1 receptor (Genebank accession number NM_001526) were grown to confluency in DMEM (Hyclone, cat #SH30022), 10% FBS, 1× Pen/Strep, 1× sodium pyruvate, 10 mM HEPES, 600 µg/mL G418 and DMEM/F12 (Gibco, Cat #11039), 10% FBS, 1× Pen/Strep, 600 µg/mL G418 media, respectively on 150 cm^2 tissue culture plates, washed with 5 mM EDTA in PBS (HyClone Dulbecco's Phoshpate Buffered Saline 1× with Calcium and Magnesium, Cat #SH30264.01, hereafter referred to simply as PBS) and scraped into 50 ml tubes. After centrifugation (2K×G, 5 min at 4° C.), the supernatant was aspirated and the pellets frozen and stored at −80° C. Cells were resuspended in PBS in the presence of 1 tablet of protease inhibitor cocktail (Roche, Cat. #11836145001) per 50 mL. Each cell pellet from a 15 cm plate was resuspended in 10 mL, stored on ice, and homogenized for 45 sec prior to addition to the reactions. Competition binding experiments in 96 well polypropylene plates were performed using [^3H]-(1-(5-(2-fluoro-phenyl)-2-methyl-thiazol-4-yl)-1-((S)-2-(5-phenyl-(1,3,4)oxadiazol-2-ylmethyl)-pyrrolidin-1-yl)-methanone) (Moraveck Corporation, specific activity=35.3 Ci/mmol), diluted to a 10 nM concentration in PBS (4 nM final). […] The final concentration of DMSO in the reactions is equal to or less than 0.1%. Total and nonspecific binding was determined in the absence and presence of 10 μM almorexant. The total volume of each reaction is 200 μL (20 μL of diluted compounds, 80 μL of [3H]-(1-(5-(2-fluoro-phenyl)-2-methyl-thiazol-4-yl)-1-((S)-2-(5-phenyl-(1,3,4)oxadiazol-2-ylmethyl)-pyrrolidin-1-yl)-methanone) diluted in PBS and 100 μL of the cell suspension). Reactions were run for 60 min at room temperature and terminated by filtration through GF/C filter plates (PerkinElmer, Cat. #6005174) presoaked in 0.3% polyethylenimine using the cell harvester (PerkinElmer Filtermate). The plates were washed 3 times by aspirating 30 ml PBS through the plates. Plates were dried in 55° C. oven for 60 min, scintillation fluid was added, and the radioactivity was counted on a Topcount (Packard).

Experiment [3] addresses human orexin 2 receptor (Homo sapiens (Human), UniProt O43614). Nature of the experiment: Human orexin 2 receptor radioligand binding ([3H]-EMPA). As to conditions: HEK293 stably expressing human orexin 2 receptor; [3H]-EMPA; apparent Ki; read-out: hOX2 Ki. On the procedure: After centrifugation (2K×G, 5 min at 4° C.), the supernatant was aspirated and the pellets frozen and stored at −80° C. […] Each cell pellet from a 15 cm plate was resuspended in 10 mL, stored on ice, and homogenized for 45 sec just prior to addition to the reactions. Competition binding experiments in 96 well polypropylene plates were performed using [^3H]-EMPA (Moraveck Corporation, specific activity=29.6 Ci/mmol), diluted to a 5 nM concentration in PBS (2 nM final concentration). […] The final concentration of DMSO in the reactions is equal to or less than 0.1%. Total and nonspecific binding was determined in the absence and presence of […]. The total volume of each reaction is 200 μL (20 μL of diluted compounds, 80 μL of [^3H]-EMPA diluted in PBS and 100 μL of the cell suspension).
The plates were washed 3 times by aspirating 30 ml PBS through the plates. Plates were dried in 55° C. oven for 60 min, scintillation fluid was added, and the radioactivity was counted on a Topcount (Packard).

SMILES strings stand for the structures. Structures can show the parent of a compound that is named as a salt.

Sequence of human orexin 2 receptor (O43614 whole entry): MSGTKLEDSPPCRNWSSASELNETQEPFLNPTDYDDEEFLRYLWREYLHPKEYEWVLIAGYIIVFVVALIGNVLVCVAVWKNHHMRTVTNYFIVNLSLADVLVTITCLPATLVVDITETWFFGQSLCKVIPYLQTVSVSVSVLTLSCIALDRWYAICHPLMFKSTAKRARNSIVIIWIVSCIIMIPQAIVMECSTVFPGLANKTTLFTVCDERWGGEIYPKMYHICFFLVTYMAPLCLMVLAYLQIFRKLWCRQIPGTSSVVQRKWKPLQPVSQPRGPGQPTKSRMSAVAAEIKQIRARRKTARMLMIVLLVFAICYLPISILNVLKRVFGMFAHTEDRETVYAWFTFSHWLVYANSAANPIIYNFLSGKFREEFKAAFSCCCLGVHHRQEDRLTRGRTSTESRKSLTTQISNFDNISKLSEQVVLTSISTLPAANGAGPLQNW

On to `Cc1ccc(C(=O)N2CCC[C@@H](Nc3nc4ccccc4o3)[C@@H]2C)c(-n2nccn2)n1` [Example 75, ((2S,3R)-3-(benzo[d]oxazol-2-ylamino)-2-methylpiperidin-1-yl)(6-methyl-2-(2H-1,2,3-triazol-2-yl)pyridin-3-yl)methanone], for which the values for the Ki in experiment [1], in experiment [2] and in experiment [3] were 0.023 µM, 0.04 µM and 9.5 µM, respectively.

In the case of `Cc1ccc(C(=O)N2CCC[C@@H](Nc3nc4ccccc4o3)[C@@H]2C)c(-n2ccnn2)n1` [Example 76, ((2S,3R)-3-(benzo[d]oxazol-2-ylamino)-2-methylpiperidin-1-yl)(6-methyl-2-(1H-1,2,3-triazol-1-yl)pyridin-3-yl)methanone], the Ki turned out to be 0.054 µM in experiment [1], 0.062 µM in experiment [2] and 1.3 µM in experiment [3].

With `C[C@H]1[C@H](Oc2ncc(C(F)(F)F)cn2)CCCN1C(=O)c1ccccc1-n1nccn1` [Example 103, (2-(2H-1,2,3-triazol-2-yl)phenyl)((2S,3R)-2-methyl-3-((5-(trifluoromethyl)pyrimidin-2-yl)oxy)piperidin-1-yl)methanone], the Ki in experiment [1] amounted to 0.044 µM; in experiment [2], 0.097 µM; in experiment [3], 2.3 µM.

`Cc1ccc(C(=O)N2CCC[C@@H](Oc3ncc(C(F)(F)F)cn3)[C@@H]2C)c(-n2nccn2)c1` [Example 102, (4-methyl-2-(2H-1,2,3-triazol-2-yl)phenyl)((2S,3R)-2-methyl-3-((5-(trifluoromethyl)pyrimidin-2-yl)oxy)piperidin-1-yl)methanone]: the Ki in experiment [1] was determined as 0.028 µM; in experiment [2], 0.025 µM; in experiment [3], 5.2 µM.

For the compound `Cc1ccc(C(=O)N2CCC[C@@H](Oc3ccc(C(F)(F)F)cn3)[C@@H]2C)c(-n2nccn2)c1` [Example 112, (4-methyl-2-(2H-1,2,3-triazol-2-yl)phenyl)((2S,3R)-2-methyl-3-((5-(trifluoromethyl)pyridin-2-yl)oxy)piperidin-1-yl)methanone], the Ki was 0.008 µM in experiment [1], 0.012 µM in experiment [2] and 0.562 µM in experiment [3].

Turning to `Cc1ccc(N[C@@H]2CCCN(C(=O)c3ccccc3-n3nccn3)[C@H]2C)nc1` (racemic) [Example 37, (±)-trans-(2-(2H-1,2,3-triazol-2-yl)phenyl)(2-methyl-3-((5-methylpyridin-2-yl)amino)piperidin-1-yl)methanone], the Ki was found to be 0.076 µM in experiment [1] and 0.071 µM in experiment [2].

On to `COc1ccc(-n2nccn2)c(C(=O)N2CCC[C@@H](Nc3ncc(C(F)(F)F)cn3)[C@@H]2C)c1` [Example 89, (5-methoxy-2-(2H-1,2,3-triazol-2-yl)phenyl)((2S,3R)-2-methyl-3-((5-(trifluoromethyl)pyrimidin-2-yl)amino)piperidin-1-yl)methanone], for which the Ki in experiment [1] was 0.014 µM; in experiment [2], 0.01 µM; in experiment [3], 0.371 µM.

As to `Cc1ccc(-c2ncco2)c(C(=O)N2CCC[C@@H](Nc3ccc(C(F)(F)F)cn3)[C@@H]2C)n1` [Example 25, ((2S,3R)-2-methyl-3-((5-(trifluoromethyl)pyridin-2-yl)amino)piperidin-1-yl)(6-methyl-3-(oxazol-2-yl)pyridin-2-yl)methanone hydrochloride], the Ki in experiment [1] came out at 0.011 µM; in experiment [2] it was 0.019 µM; in experiment [3] it was 0.19 µM.

Turning to `Cc1ccc(C(=O)N2CCC[C@@H](Nc3ccc(C(F)(F)F)cn3)[C@@H]2C)c(-n2ccnn2)n1` [Example 93, (6-methyl-2-(1H-1,2,3-triazol-1-yl)pyridin-3-yl)((2S,3R)-2-methyl-3-((5-(trifluoromethyl)pyridin-2-yl)amino)piperidin-1-yl)methanone], the Ki in experiment [1] amounted to 0.052 µM; in experiment [2], 0.038 µM; in experiment [3], 2.7 µM.

For `Cc1cnc(C(=O)N2CCC[C@@H](Nc3ccc(Br)cn3)[C@@H]2C)c(-n2nccn2)c1` [Example 92, ((2S,3R)-3-((5-bromopyridin-2-yl)amino)-2-methylpiperidin-1-yl)(5-methyl-3-(2H-1,2,3-triazol-2-yl)pyridin-2-yl)methanone], the figures for the Ki in experiment [1], in experiment [2] and in experiment [3] were 0.019 µM, 0.018 µM and 4.2 µM, respectively.

Take `Cc1cnc(C(=O)N2CCC[C@@H](Nc3ccc(Br)cn3)[C@@H]2C)c(-c2ncco2)c1` [Example 80, ((2S,3R)-3-((5-bromopyridin-2-yl)amino)-2-methylpiperidin-1-yl)(5-methyl-3-(oxazol-2-yl)pyridin-2-yl)methanone]: the Ki in experiment [1] was found to be 0.029 µM; in experiment [2], 0.024 µM; in experiment [3], 4.9 µM.

As to `Cc1cnc(C(=O)N2CCC[C@@H](Nc3ccc(Cl)cn3)[C@@H]2C)c(-c2ncco2)c1` [Example 77, ((2S,3R)-3-((5-chloropyridin-2-yl)amino)-2-methylpiperidin-1-yl)(5-methyl-3-(oxazol-2-yl)pyridin-2-yl)methanone], the Ki in experiment [1] amounted to 0.036 µM; in experiment [2] it was 0.055 µM; in experiment [3] it was 4.02 µM.

Turning to `Cc1cnc(C(=O)N2CCC[C@@H](Nc3nc4ccccc4o3)[C@@H]2C)c(-n2nccn2)c1` [Example 73, ((2S,3R)-3-(benzo[d]oxazol-2-ylamino)-2-methylpiperidin-1-yl)(5-methyl-3-(2H-1,2,3-triazol-2-yl)pyridin-2-yl)methanone], the Ki in experiment [1] came to 0.007 µM; in experiment [2] it was 0.021 µM; in experiment [3], 1.89 µM.

Regarding `C[C@H]1[C@H](Nc2ncc(Cl)cn2)CCCN1C(=O)c1ccccc1-n1nccn1` (racemic) [Example 30, (±)-trans-(2-(2H-1,2,3-triazol-2-yl)phenyl)(3-((5-chloropyrimidin-2-yl)amino)-2-methylpiperidin-1-yl)methanone], the Ki was 0.055 µM in experiment [1] and 0.054 µM in experiment [2].

For the compound `Cc1cc(C)nc(N[C@@H]2CCCN(C(=O)c3ccc(F)cc3-n3nccn3)[C@H]2C)n1` (racemic) [Example 1, (±)-trans-(3-((4,6-dimethylpyrimidin-2-yl)amino)-2-methylpiperidin-1-yl)(4-fluoro-2-(2H-1,2,3-triazol-2-yl)phenyl)methanone], the Ki in experiment [2] stood at 1.03 µM; in experiment [3], 0.29 µM.
